Measurements: US20260306460A1, “COMPOSITION FOR REMOVING AND INHIBITING SENESCENT CELLS, AND USES THEREOF” (LIFECEUTIX CO., LTD., priority 2023, published 2026)
*1 amine or outer side, *2 acyl side, *3 side chain or, on linkers, in order; H or OH if unused. Where a SMILES comes first, the peptide text is derived from it. Bridges are numbered along the chain shown (N, C = ends). [ ]: non-standard residue; d: D form. The star is where a group is joined. X1 = CC[C@H](C)[C@@H](N[*:1])[C@@H](O)CC(=O)O[C@H](C(=O)[C@H](C)C(=O)[*:2])C(C)C; NMeY = CN[C@@H](Cc1ccc(O)cc1)C(=O)O; dNMeL = CN[C@H](CC(C)C)C(=O)O; Pyruvoyl = CC(=O)C(=O)*

Columns and labels:
senescent cells = assay: Viability of senescent cells (CellTiter-Glo), Example 17, Table 13; settings: Homo sapiens, read-out: Survival (%)
Procedure: Cells induced to undergo senescence by doxorubicin treatment were treated with test compound at designated concentrations and measured using the CellTiter-Glo Luminescent Cell Viability Assay (Promega).

senescent A549 cells = assay: Viability of senescent A549 cells (CellTiter-Glo), Example 18, Table 15; settings: Homo sapiens, A549, read-out: Survival (%)
Procedure: Senescence-induced cancer cells treated with doxorubicin were treated with the test compound at designated concentrations, and cell viability was measured using the CellTiter-Glo Luminescent Cell Viability Assay (Promega).

| SMILES | viability at 1.1 µM (senescent cells) | viability at 1.1 µM (senescent A549 cells) | viability at 10 µM (senescent A549 cells) | viability at 10 µM (senescent cells) | viability at 30 µM (senescent cells) | viability at 30 µM (senescent A549 cells) | viability at 90 µM (senescent cells) | viability at 90 µM (senescent A549 cells) |
| --- | --- | --- | --- | --- | --- | --- | --- | --- |
| CC[C@H](C)[C@H]1NC(=O)[C@@H](NC(=O)[C@@H](CC(C)C)N(C)C(=O)[C@@H]2CCCN2C(=O)C(C)=O)[C@@H](C)OC(=O)[C@H](Cc2ccc(OC)cc2)N(C)C(=O)[C@@H]2CCCN2C(=O)[C@H](CC(C)C)NC(=O)[C@@H](C)C(=O)[C@H](C(C)C)OC(=O)C[C@@H]1O [LX-6212, Plitidepsin] (Pyruvoyl-P[dNMeL]T[X1]LP[NMeY](Me); ester 3-C) | 52.3% | 75.7% | 0.9% |  |  |  |  |  |
| CN(C)C[C@@H]1CCn2cc(c3ccccc32)C2=C(C(=O)NC2=O)c2cn(c3ccccc23)CCO1 [LX-9339, Ruboxistaurin] | 55.6% | 49.2% |  |  |  |  |  |  |
| CCOC(=O)C1=CCCC[C@H]1S(=O)(=O)Nc1ccc(F)cc1Cl [LX-9137, Resatorvid] | 90.5% | 91.8% | 37.2% | 43.8% | 14.6% | 8.8% |  |  |
| O=C1[C@H](CC[C@H](O)c2ccc(F)cc2)[C@@H](c2ccc(O)cc2)N1c1ccc(F)cc1 [LX-9321, Ezetimibe] | 98.3% | 108% | 91.4% | 86.4% | 79.6% | 65.8% | 19.4% | 4.1% |
| CCCCC[C@H](O)CC[C@@H]1[C@H]2Cc3cccc(OCC(=O)O)c3C[C@H]2C[C@H]1O [LX-9713, Treprostinil] | 1.8% | 28.4% |  |  |  |  |  |  |
| NC(=O)c1ccc(-c2cc3c(NC4CCS(=O)(=O)CC4)cccc3n2CC(F)(F)F)cc1 [LX-5904] | 103% | 95.4% | 45.2% | 25.9% | 2.2% | 10.9% |  |  |
| C#Cc1nc(C(=O)N2[C@@H](CCCC)Cc3cc(C=C)ccc3[C@@H]2c2ccc(NC34CC5CC(CC(C5)C3)C4)cc2)cs1 [LX-5362] | 42.5% | 61.8% |  |  |  |  |  |  |
| CCNCC[C@H](O)CNCCCCNC[C@@H](O)CCNCC [LX-6516, Ivospemin] | 93.3% | 91.7% | 79.6% | 71.1% | 31.8% | 27.6% |  |  |
| CCCCCCCC/C(=C\CCCCCCCC(=O)O)[N+](=O)[O-] [LX-7111, 10-Nitrooleic acid] | 78.1% | 79.2% | 43.7% | 22% |  | 0.8% |  |  |
| COc1ccc(F)cc1C(=O)NCc1ccc(-c2nn([C@@H](C)C(F)(F)F)c(N)c2C(N)=O)cc1 [LX-6981, Pirtobrutinib] | 0.2% | 43.1% |  |  |  |  |  |  |
| Nc1ncn([C@H]2C[C@@H](O)[C@@H](CO)S2)c(=O)n1 [LX-7288, 4′-thio-5-aza-2′-deoxycytidine] | 41.8% | 48.3% |  |  |  |  |  |  |
| CS(=O)(=O)c1ccc(Oc2cc(F)cc(C#N)c2)c2c1[C@H](O)[C@H](F)[C@@H]2F [LX-7451, Belzutifan] | 105% | 100% | 68.7% | 39.2% |  | 10.7% |  |  |
| CC(C)C[C@H](CN)CC(=O)O [LX-9131, Pregabalin] | 81.9% | 91.7% | 83.3% | 47.7% | 13.2% | 57.9% |  | 12.4% |
| COc1c(C)c2c(c(O)c1C/C=C(\C)CCC(=O)O)C(=O)OC2 [LX-9725, Mycophenolic acid] | 49.3% | 62.4% |  |  |  |  |  |  |
| COc1ccc(CN2C3CC2CN(c2ccc(-c4cc(OCC(C)(C)O)cn5ncc(C#N)c45)cn2)C3)cn1 [LX-6988, Selpercatinib] | 93.5% | 98.2% | 46.3% | 53.7% | 3.7% | 5.7% |  |  |
| COc1ccc(Cl)cc1C(=O)NCCc1ccc(S(=O)(=O)NC(=O)NC2CCCCC2)cc1 [LX-9335, glyburide] | 85.2% | 90.2% | 60.8% | 56.3% | 12.2% | 13.8% |  |  |
| CN1CCCC1 [LX-9425, N-methyl pyrrolidine] | 102% | 97.5% | 100% | 97.5% | 66.8% | 68.2% |  |  |
| COc1cc(Cc2cnc(N)nc2N)cc(OC)c1OC [LX-9114, Trimethoprim] | 102% | 95.2% | 74.4% | 88.6% | 16.1% | 20.7% |  |  |

| SMILES | viability at 1.1 µM (senescent cells) | viability at 1.1 µM (senescent A549 cells) | viability at 10 µM (senescent A549 cells) | viability at 10 µM (senescent cells) | viability at 30 µM (senescent cells) | viability at 30 µM (senescent A549 cells) | viability at 90 µM (senescent cells) | viability at 90 µM (senescent A549 cells) |
| --- | --- | --- | --- | --- | --- | --- | --- | --- |
| CC[C@H]1[C@@H](O)[C@@H]2[C@H](CC[C@]3(C)[C@@H]([C@H](C)CCC(=O)O)CC[C@@H]23)[C@@]2(C)CC[C@@H](O)C[C@@H]12 [LX-9732, Obeticholic Acid] | 95.7% | 97.5% | 51.3% | 46.4% | 3.8% | 7.9% |  |  |
| COc1cc(Nc2ncc3c(n2)-c2ccc(Cl)cc2C(c2c(F)cccc2OC)=NC3)ccc1C(=O)O [LX-6203, Alisertib] | 75.1% | 96.4% | 30.7% | 13.1% |  | 2.1% |  |  |
| CCOc1cc(CC(=O)N[C@@H](CC(C)C)c2ccccc2N2CCCCC2)ccc1C(=O)O [LX-9302, Repaglinide] | 99.7% | 94.1% | 82.3% | 73.5% | 34.3% | 68.5% |  | 11.8% |
| CCN(CCCOc1ccc2c(Nc3cc(CC(=O)Nc4cccc(F)c4)n[nH]3)ncnc2c1)CCOP(=O)(O)O [LX-6205, Barasertib] | 3.8% | 57.4% |  |  |  |  |  |  |
| O=c1sn(-c2cccc3ccccc23)c(=O)n1Cc1ccccc1 [LX-7121, Tideglusib] | 94.7% | 76.5% | 52.4% | 57.9% | 3.9% | 12.8% |  |  |
| NCCCC(O)(P(=O)(O)O)P(=O)(O)O [LX-9105, Alendronate] | 102% | 105% | 96.2% | 96% | 89.9% | 57.1% | 4.2% | 6.9% |
| CC(=O)NCCOC(=O)[C@H](Oc1cccc(C(F)(F)F)c1)c1ccc(Cl)cc1 [LX-9409, Arhalofenate] | 80.5% | 72.7% | 51.9% | 65.7% | 15.3% | 8.7% |  |  |
| Cn1cc(C2=C(c3cn(C4CCN(Cc5ccccn5)CC4)c4ccccc34)C(=O)NC2=O)c2ccccc21 [LX-7135, Enzastaurin] | 75.7% | 94.7% | 5.7% |  |  |  |  |  |
| N=C(NC(=N)N1CCCC1)Nc1ccc(OC(F)(F)F)cc1 [LX-7403, Lixumistat] | 94.5% | 99.5% | 52.7% | 72.3% | 38.4% | 7.5% |  |  |
| Nc1cc(F)ccc1NC(=O)c1ccc(CNC(=O)/C=C/c2cccnc2)cc1 [LX-6809, Chidamide] | 87.5% | 100% | 63.7% | 53.3% | 17.8% | 23.9% |  |  |
| O=C1Nc2ccccc2/C1=C1/Nc2ccc(C(=O)NCC3CCN(C(=O)CCl)CC3)cc2C1=O [LX-5328] | 54.3% | 62.7% | 0.4% | 2% |  |  |  |  |
| C=C(CN1Cc2c(ccc3ccc(-c4cc(NC(C)=O)cc(OC)c4)cc23)C1=O)C(N)=O [LX-5907] | 95.5% | 91.8% | 39.4% | 19.5% | 1.7% | 14.4% |  |  |
| NS(=O)(=O)OC[C@@H]1C[C@@H](n2ccc3c(N[C@H]4CCc5ccccc54)ncnc32)C[C@@H]1O [LX-6202, Pevonedistat] | 1.5% | 53.3% |  |  |  |  |  |  |
| CCc1ccc(CCOc2ccc(CC3SC(=O)NC3=O)cc2)nc1 (centres unmarked) [LX-9422, Pioglitazone] | 94.7% | 104% | 62.8% | 56.2% | 6.7% | 15.8% |  |  |
| Nc1nc2nc[nH]c2c(=S)[nH]1 [LX-6530, Thioguanine] | 106% | 97.9% | 83.9% | 112% | 46.1% | 61.1% |  | 10.3% |
| C[C@H]1Oc2cc(cnc2N)-c2c(nn(C)c2C#N)CN(C)C(=O)c2ccc(F)cc21 [LX-5449, Lorlatinib] | 89.1% | 91.3% | 44.3% | 44.1% | 8.7% | 2.4% |  |  |
| N[C@@H](CCC(=O)N[C@@H](CS(=O)(=O)CCOP(=O)(N(CCCl)CCCl)N(CCCl)CCCl)C(=O)N[C@@H](C(=O)O)c1ccccc1)C(=O)O [LX-7463, Canfosfamide] | 88.8% | 96.5% | 43.3% | 32.1% |  | 0.1% |  |  |
| C#CCC(Cc1cnc2nc(N)nc(N)c2n1)c1ccc(C(=O)N[C@@H](CCC(=O)O)C(=O)O)cc1 (some centres unmarked) [LX-7405, Pralatrexate] | 100% | 94.7% | 78.4% | 79% | 40.6% | 12.1% |  |  |
